Data reported in patent US20240116946A1 (Gilead Sciences, Inc., priority 2022, published 2024).
Where two headings read alike, the source gives them in different places.

Assays:
[1] = target: recombinant SARS-CoV-2 Main protease (Mpro) (Severe acute respiratory syndrome coronavirus 2 (2019-nCoV) (SARS-CoV-2), UniProt P0DTD1); test: Cov Mpro Biochemical IC50 Assay; conditions: recombinant SARS-CoV-2 Mpro 7.5 nM, fluorogenic peptide substrate 40 μM; read-out: MPro IC50
SARS-CoV-2-NLuc = test: microbe, parasite or virus in culture; assay type: cell-based, SARS Coronavirus 2
[2] = Severe acute respiratory syndrome coronavirus, 48 h, read-out: MPro EC50
[3] = Severe acute respiratory syndrome coronavirus, 48 h; read-out: MPro EC50

SMILES	IC50 [1] [nM]	EC50 (SARS-CoV-2-NLuc; [2]) [nM]	EC50 (SARS-CoV-2-NLuc; [3]) [nM]
COc1cccc(C#N)c1-c1cc2c(s1)c(=O)n(-c1cncc3ccccc13)c(=O)n2CCC#N [Example 820]	5.73	32.9	
N#CCCn1c(=O)n(-c2cncc3ccccc23)c(=O)c2sc(-c3cc(Cl)ccc3C#N)cc21 [Example 821]	6.75	11.5	
Cn1ncc2cncc(-n3c(=O)c4sc(-c5cc(C(F)(F)F)ccc5C#N)cc4n(CCC#N)c3=O)c21 [Example 822]	96.4		346
Cc1cc(-c2cc3c(s2)c(=O)n(-c2cncc4ccccc24)c(=O)n3CCC#N)c(C#N)cc1F [Example 823]	16.3	25.7	
Cn1ncc2cncc(-n3c(=O)c4sc(-c5ccc(Cl)cc5C#N)cc4n(CCC#N)c3=O)c21 [Example 824]	22.5		79.9
Cc1cc(-n2c(=O)c3sc(-c4ccccc4Cl)cc3n(CCC#N)c2=O)cnc1F [Example 825]	33.9	77	
N#CCCn1c(=O)n(-c2cncc3ccccc23)c(=O)c2sc(-c3cc(F)c(F)cc3Cl)cc21 [Example 826]	8.26	23.9	
N#CCCn1c(=O)n(-c2cncc3ccccc23)c(=O)c2sc(-c3ccc(F)cc3Cl)cc21 [Example 827]	10.2	10.4	
N#CCCn1c(=O)n(-c2cnccn2)c(=O)c2sc(-c3ccccc3Cl)cc21 [Example 828]	94.1	458	
N#CCCn1c(=O)n(-c2cnccn2)c(=O)c2sc(-c3ccc(F)cc3C#N)cc21 [Example 829]	420		> 1000
N#CCCn1c(=O)n(-c2cnccn2)c(=O)c2sc(-c3ccccc3C#N)cc21 [Example 830]	350		> 1000
N#CCCn1c(=O)n(-c2cncc3ccccc23)c(=O)c2sc(-c3cc(F)ccc3Cl)cc21 [Example 831]	8.53	7.19	
COc1cc(-c2cc3c(s2)c(=O)n(-c2cncc4ccccc24)c(=O)n3CCC#N)c(Cl)cc1Cl [Example 832]	7.71	7.16	
Cc1cncc(-n2c(=O)c3sc(-c4ccccc4Cl)cc3n(CCC#N)c2=O)n1 [Example 833]	16	49.7	
Cc1c(Cl)cncc1-n1c(=O)c2sc(-c3ccccc3Cl)cc2n(CCC#N)c1=O [Example 834]	19.5		34.2
Cc1cnnc(-n2c(=O)c3sc(-c4ccccc4Cl)cc3n(CCC#N)c2=O)c1 [Example 835]	9.44		28.1
COc1cncc(-n2c(=O)c3sc(-c4ccccc4Cl)cc3n(CCC#N)c2=O)c1 [Example 836]	21.7		40.5
COc1cnc(C#N)c(-c2cc3c(s2)c(=O)n(-c2cncc4ccccc24)c(=O)n3CCC#N)c1 [Example 837, 3-(1-(2-cyanoethyl)-3-(isoquinolin-4-yl)-2,4-dioxo-1,2,3,4-tetrahydrothieno[3,2-d]pyrimidin-6-yl)-5-methoxypicolinonitrile]	9.22	30.4	
COc1cccc(C#N)c1-c1cc2c(s1)c(=O)n(-c1cncc3cnn(C)c13)c(=O)n2CCC#N [Example 838, 2-(1-(2-cyanoethyl)-3-(1-methyl-1H-pyrazolo[4,3-c]pyridin-7-yl)-2,4-dioxo-1,2,3,4-tetrahydrothieno[3,2-d]pyrimidin-6-yl)-3-methoxybenzonitrile]	32.5	115	

SMILES	IC50 [1] [nM]	EC50 (SARS-CoV-2-NLuc; [2]) [nM]	EC50 (SARS-CoV-2-NLuc; [3]) [nM]
COc1cccc(C#N)c1-c1cc2[nH]c(=O)n(-c3cncc4cnn(C)c34)c(=O)c2s1 [Example 839, 3-methoxy-2-(3-(1-methyl-1H-pyrazolo[4,3-c]pyridin-7-yl)-2,4-dioxo-1,2,3,4-tetrahydrothieno[3,2-d]pyrimidin-6-yl)benzonitrile]	91.3	463	
Cc1ccc(-c2cc3c(s2)c(=O)n(-c2cncc4cnn(C)c24)c(=O)n3CCC#N)c(C#N)c1 [Example 840]	16.8	43.3	
Cc1ccc(-c2cc3[nH]c(=O)n(-c4cncc5cnn(C)c45)c(=O)c3s2)c(C#N)c1 [Example 841]	134	523	
COc1cc(-c2cc3c(s2)c(=O)n(-c2cncc4nc(C)n(C)c24)c(=O)n3CCC#N)c(Cl)cc1F [Example 842, 3-(6-(2-chloro-4-fluoro-5-methoxyphenyl)-3-(1,2-dimethyl-1H-imidazo[4,5-c]pyridin-7-yl)-2,4-dioxo-3,4-dihydrothieno[3,2-d]pyrimidin-1(2H)-yl)propanenitrile]	6.66	27.5	
COc1cc(-c2cc3c(s2)c(=O)n(-c2cncc4ncn(C)c24)c(=O)n3CCC#N)c(Cl)cc1F [Example 843]	5.43	13.2	
Cn1cnc2cncc(-n3c(=O)c4sc(-c5ccccc5C#N)cc4n(CCC#N)c3=O)c21 [Example 844]	65.6		> 1000
COc1cc(-c2cc3c(s2)c(=O)n(-c2cncc4ncn(C)c24)c(=O)n3CCC#N)c(C#N)cc1F [Example 845]	10	388	
Cc1c(Cl)cncc1-n1c(=O)c2sc(-c3ccccc3C#N)cc2n(CCC#N)c1=O [Example 846]	12.5		37.3
Cc1c(Cl)cncc1-n1c(=O)c2sc(-c3cc(F)c(F)cc3Cl)cc2n(CCC#N)c1=O [Example 847]	8.09		19.8
Cc1c(F)cncc1-n1c(=O)c2sc(-c3ccccc3C#N)cc2n(CCC#N)c1=O [Example 848]	34.5		137
COc1cc(-c2cc3c(s2)c(=O)n(-c2cncc(F)c2C)c(=O)n3CCC#N)c(C#N)cc1F [Example 849]	12.8	30.4	
Cc1c(F)cncc1-n1c(=O)c2sc(-c3cc(F)c(F)cc3Cl)cc2n(CCC#N)c1=O [Example 850]	26.7		54.2
Cn1cnc2cncc(-n3c(=O)c4sc(-c5ccc(F)cc5Cl)cc4n(CCC#N)c3=O)c21 [Example 851]	22.3		75.3
Cn1cnc2cncc(-n3c(=O)c4sc(-c5cc(F)c(F)cc5Cl)cc4n(CCC#N)c3=O)c21 [Example 852]	27.4		104
Cc1nc2cncc(-n3c(=O)c4sc(-c5ccc(F)cc5Cl)cc4n(CCC#N)c3=O)c2n1C [Example 853, 3-(6-(2-chloro-4-fluorophenyl)-3-(1,2-dimethyl-1H-imidazo[4,5-c]pyridin-7-yl)-2,4-dioxo-3,4-dihydrothieno[3,2-d]pyrimidin-1(2H)-yl)propanenitrile]	26.8	102	
Cc1nc2cncc(-n3c(=O)c4sc(-c5ccccc5C#N)cc4n(CCC#N)c3=O)c2n1C [Example 854]	93.3	> 1000	
COc1cc(-c2cc3c(s2)c(=O)n(-c2cncc4nc(C)n(C)c24)c(=O)n3CCC#N)c(C#N)cc1F [Example 855]	19	498	
COc1cc(-c2cc3c(s2)c(=O)n(-c2cncc4nc(C(F)(F)F)n(C)c24)c(=O)n3CCC#N)c(Cl)cc1F [Example 856, 3-(6-(2-chloro-4-fluoro-5-methoxyphenyl)-3-(1-methyl-2-(trifluoromethyl)-1H-imidazo[4,5-c]pyridin-7-yl)-2,4-dioxo-3,4-dihydrothieno[3,2-d]pyrimidin-1(2H)-yl)propanenitrile]	23.2	46.1	
Cn1c(C(F)(F)F)nc2cncc(-n3c(=O)c4sc(-c5ccc(F)cc5Cl)cc4n(CCC#N)c3=O)c21 [Example 857]	161		348
